Laboratory results as given in PubChem BioAssay AID248 (DTP/NCI, 2004).
Several values for one entry are separate records, joined by “and”; a condition that tells them apart may be missing. Equal entries are not always repeated. Inconclusive results and toxic doses are left out. Cut-off read from the data, not from the text of the source: active = T/C of 150% or more; inactive = T/C below 125%.

System: L1210 leukemia ip in BDF1 mice, survival T/C
Experiment: NCI In Vivo Anticancer Drug Screen. Data for tumor model L1210 Leukemia (intraperitoneal) in B6D2F1 (BDF1) mice
Settings: endpoint: mean survival time, higher = longer survival
Method in brief: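 Survival endpoint. Drug-treated group vs vehicle group, expressed as T divided by C. Tumor passaged by transplantation.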

[1] = dose: 12.5 mg/kg/injection, schedule: Q01DX009 (ip), vehicle: saline with Tween-80
[2] = dose: 25.0 mg/kg/injection, schedule: Q01DX009 (ip), vehicle: saline with Tween-80
[3] = dose: 100.0 mg/kg/injection, schedule: Q01DX001 (ip), vehicle: saline with Tween-80
[4] = dose: 100.0 mg/kg/injection, schedule: Q04DX003 (ip), vehicle: saline with Tween-80
[5] = dose: 200.0 mg/kg/injection, schedule: Q04DX003 (ip), vehicle: saline with Tween-80
[6] = dose: 400.0 mg/kg/injection, schedule: Q01DX001 (ip), vehicle: saline with Tween-80
[7] = dose: 400.0 mg/kg/injection, schedule: Q04DX002 (ip), vehicle: saline with Tween-80
[8] = dose: 25.0 mg/kg/injection, schedule: Q01DX009 (ip), vehicle: saline
[9] = dose: 50.0 mg/kg/injection, schedule: Q01DX009 (ip), vehicle: Klucel (hydroxypropylcellulose) (HPC)
[10] = dose: 100.0 mg/kg/injection, schedule: Q04DX003 (ip), vehicle: Klucel (hydroxypropylcellulose) (HPC)
[11] = dose: 200.0 mg/kg/injection, schedule: Q04DX003 (ip), vehicle: Klucel (hydroxypropylcellulose) (HPC)
[12] = dose: 400.0 mg/kg/injection, schedule: Q04DX003 (ip), vehicle: Klucel (hydroxypropylcellulose) (HPC)
[13] = dose: 50.0 mg/kg/injection, schedule: Q01DX009 (ip), vehicle: saline
[14] = dose: 100.0 mg/kg/injection, schedule: Q01DX009 (ip), vehicle: saline
[15] = dose: 100.0 mg/kg/injection, schedule: Q04DX002 (ip), vehicle: saline
[16] = dose: 200.0 mg/kg/injection, schedule: Q04DX002 (ip), vehicle: saline
[17] = dose: 100.0 mg/kg/injection, schedule: Q04DX003 (ip), vehicle: saline
[18] = dose: 200.0 mg/kg/injection, schedule: Q04DX003 (ip), vehicle: saline
[19] = dose: 200.0 mg/kg/injection, schedule: Q01DX009 (ip), vehicle: saline

Measured: T/C

CCN(C(=O)NC(C)(C)C)c1cccc(C)c1
inactive: [1] 108 % of control | [2] 105 % of control and 106 % of control | [3] 122 % of control | dose: 100.0 mg/kg/injection, schedule: Q04DX002 (ip), vehicle: saline with Tween-80 101 % of control and 86 % of control | [4] 102 % of control | dose: 200.0 mg/kg/injection, schedule: Q04DX002 (ip), vehicle: saline with Tween-80 94 % of control and 97 % of control | [5] 105 % of control | [6] 103 % of control | [7] 101 % of control

CCOCc1cc([N+](=O)[O-])cc([N+](=O)[O-])c1O
inactive: dose: 5.56 mg/kg/injection, schedule: Q01DX009 (ip), vehicle: saline with Tween-80 90 % of control | dose: 8.33 mg/kg/injection, schedule: Q01DX009 (ip), vehicle: saline with Tween-80 108 % of control | [1] 95 % of control | dose: 18.7 mg/kg/injection, schedule: Q01DX009 (ip), vehicle: saline with Tween-80 104 % of control | [2] 103 % of control | dose: 50.0 mg/kg/injection, schedule: Q01DX009 (ip), vehicle: saline with Tween-80 93 % of control

Fc1c(F)c(F)c(Oc2nc(-c3ccccc3)nc(-c3ccccc3)n2)c(F)c1F
inactive: dose: 25.6 mg/kg/injection, schedule: Q04DX002 (ip), vehicle: saline with Tween-80 92 % of control | dose: 64.0 mg/kg/injection, schedule: Q04DX002 (ip), vehicle: saline with Tween-80 106 % of control | dose: 160.0 mg/kg/injection, schedule: Q04DX002 (ip), vehicle: saline with Tween-80 100 % of control | [7] 95 % of control

CCC(CC)CCCC(C)Nc1ccnc2cc(Cl)ccc12 (centres undefined)
inactive: dose: 6.25 mg/kg/injection, schedule: Q01DX009 (ip), vehicle: saline 101 % of control | dose: 12.5 mg/kg/injection, schedule: Q01DX009 (ip), vehicle: saline 98 % of control | [8] 95 % of control

COC1=C(OC)C(=O)c2ccccc2C1=O
inactive: dose: 12.5 mg/kg/injection, schedule: Q01DX009 (ip), vehicle: Klucel (hydroxypropylcellulose) (HPC) 95 % of control | dose: 25.0 mg/kg/injection, schedule: Q01DX009 (ip), vehicle: Klucel (hydroxypropylcellulose) (HPC) 92 % of control | [9] 98 % of control

NC(=O)c1ccnn1C1OC(CO)C(O)C1O (centres undefined)
inactive: dose: 50.0 mg/kg/injection, schedule: Q01DX005 (ip), vehicle: water 102 % of control | dose: 100.0 mg/kg/injection, schedule: Q01DX005 (ip), vehicle: water 102 % of control | dose: 200.0 mg/kg/injection, schedule: Q01DX005 (ip), vehicle: water 105 % of control

CCCCCCCCCCCCCCCCS(=O)(=O)c1ccc(S(=O)(=O)F)cc1NC(C)=O
inactive: [10] 91 % of control | dose: 200.0 mg/kg/injection, schedule: Q01DX009 (ip), vehicle: saline sonified 93 % of control | [11] 94 % of control | [12] 91 % of control

CCOC(OCC)c1cc[n+](CCc2ccc(OC)c(OC)c2)cc1
inactive: [8] 101 % of control | dose: 25.0 mg/kg/injection, schedule: Q04DX003 (ip), vehicle: saline with Tween-80 95 % of control | [13] 101 % of control | dose: 50.0 mg/kg/injection, schedule: Q04DX003 (ip), vehicle: saline with Tween-80 88 % of control | [14] 98 % of control | [4] 95 % of control

CCCCC(=O)N1CCOCC1
inactive: [15] 107 % of control | [16] 101 % of control | dose: 400.0 mg/kg/injection, schedule: Q04DX002 (ip), vehicle: saline 107 % of control

CCCNc1ncc(C(=O)O)c(=O)[nH]1
inactive: [4] 93 % of control

CC1(C)CCc2cc3c(O)c(-c4ccccc4)c(=O)oc3cc2O1
inactive: [17] 97 % of control | [18] 91 % of control | dose: 400.0 mg/kg/injection, schedule: Q04DX003 (ip), vehicle: saline 91 % of control

COc1ccc2c3c1O[C@H]1C(O)C=C[C@H]4[C@@H](C2)N(C)CC[C@]314 (some centres undefined)
inactive: dose: 100.0 mg/kg/injection, schedule: Q01DX001 (ip), vehicle: saline 95 % of control | dose: 200.0 mg/kg/injection, schedule: Q01DX001 (ip), vehicle: saline 95 % of control

CC(=O)NC(CC(=O)O)C(=O)O (centres undefined)
inactive: [9] 97 % of control | dose: 50.0 mg/kg/injection, schedule: Q04DX002 (ip), vehicle: saline 107 % of control | dose: 100.0 mg/kg/injection, schedule: Q01DX009 (ip), vehicle: Klucel (hydroxypropylcellulose) (HPC) 105 % of control | [14] 107 % of control | [15] 107 % of control | [10] 90 % of control | dose: 200.0 mg/kg/injection, schedule: Q01DX009 (ip), vehicle: Klucel (hydroxypropylcellulose) (HPC) 101 % of control | [19] 113 % of control | [16] 98 % of control | [11] 87 % of control | dose: 400.0 mg/kg/injection, schedule: Q01DX009 (ip), vehicle: saline 102 % of control | [12] 97 % of control

Cc1c(C(=O)NN)no[n+]1[O-]
inactive: dose: 25.0 mg/kg/injection, schedule: Q04DX002 (ip), vehicle: Klucel (hydroxypropylcellulose) (HPC) 96 % of control | dose: 50.0 mg/kg/injection, schedule: Q04DX002 (ip), vehicle: Klucel (hydroxypropylcellulose) (HPC) 93 % of control | dose: 100.0 mg/kg/injection, schedule: Q04DX002 (ip), vehicle: Klucel (hydroxypropylcellulose) (HPC) 93 % of control

O=C(N/N=C/c1ccccc1O)c1ccccc1O
inactive: [4] 95 % of control | [5] 92 % of control | dose: 400.0 mg/kg/injection, schedule: Q04DX003 (ip), vehicle: saline with Tween-80 93 % of control

COc1ccc(SC(=O)N(C)C)cc1
inactive: [3] 98 % of control | dose: 200.0 mg/kg/injection, schedule: Q01DX001 (ip), vehicle: saline with Tween-80 94 % of control | [6] 98 % of control

O=C(O)CC[n+]1c(/C=C/c2cc(Br)c(O)c(Br)c2)sc2ccccc21
inactive: dose: 100.0 mg/kg/injection, schedule: Q04DX003 (ip), vehicle: saline sonified 102 % of control | dose: 200.0 mg/kg/injection, schedule: Q04DX003 (ip), vehicle: saline sonified 99 % of control

CSCCC(C#N)(CCN(C)C)c1ccccc1 (centres undefined)
inactive: dose: 25.0 mg/kg/injection, schedule: Q01DX009 (ip), vehicle: other 102 % of control | dose: 50.0 mg/kg/injection, schedule: Q01DX009 (ip), vehicle: other 98 % of control | dose: 100.0 mg/kg/injection, schedule: Q01DX009 (ip), vehicle: other 91 % of control | dose: 100.0 mg/kg/injection, schedule: Q01DX009 (ip), vehicle: saline with Tween-80 97 % of control | [10] 96 % of control | [11] 98 % of control

COc1ccccc1NC(=O)N(O)C1(C#N)CCCCC1
inactive: dose: 100.0 mg/kg/injection, schedule: Q01DX001 (ip), vehicle: carboxymethylcellulose (CMC) 94 % of control | dose: 200.0 mg/kg/injection, schedule: Q01DX001 (ip), vehicle: carboxymethylcellulose (CMC) 93 % of control | dose: 400.0 mg/kg/injection, schedule: Q01DX001 (ip), vehicle: carboxymethylcellulose (CMC) 96 % of control

CCOC(=O)NCCN(C)C
inactive: [13] 105 % of control | [14] 102 % of control | [17] 99 % of control | [19] 108 % of control | [18] 102 % of control
